Laboratory results reported in US20110178053A1, “AZACARBOLINE DERIVATIVES, PREPARATION METHOD THEREOF AND THERAPEUTIC USE OF SAME” (SANOFI-AVENTIS, priority 2008, published 2011).
Like-named read-outs stand apart in the source and are kept apart here.

Key:
Format in all cases: biochemical
Pim-1 = target: T1, Pim-1 (Homo sapiens, UniProt P11309); experiment: TR-FRET assay, Pim-1 kinase (phosphorylation of Bad Ser112); conditions: read-out: IC50 Pim1
T1 construct: His6-labelled recombinant full-length human Pim-1, Pim-2 or Pim-3 protein; His6; made in house
Description: (§1) In order to determine the inhibition of activation of Pim kinases, the compounds of the invention are tested in accordance with a routinely used in vitro TR-FRET assay (Time-Resolved Fluorescence Resonance Energy Transfer). […] For the assay, the following reagents are used:
(§2) Pim kinase—His6-labelled recombinant full-length human Pim-1, Pim-2 or Pim-3 protein (prepared according to J. Mol. Biol. (2005) 348, 183-193); Bad—His6-labelled recombinant full-length human Bad protein (prepared according to J. Mol. Biol. (2005) 348, 183-193); α-His6-APC—murine monoclonal antibody conjugated to allophycocyanin SureLight™ directed against the His6 label (Perkin-Elmer, No. AD0059H, Waltham, Mass., United States); • β-P˜Bad-Eu—murine monoclonal antibody (Cell Signaling Technology #9296B, Danvers, Mass., United States) directed against phosphoBad (Ser112) (7E11) custom-labelled by Perkin-Elmer with the reagent LANCE™ Eu-W1024.
(§3) The assay is based on Perkin-Elmer's LANCE™ technology: the Eu-labelled antibody binds to phospho-Ser112 and generates a TR-FRET signal by interaction with the APC-labelled antibody directed against His6, bound to the His6 label of Bad. The TR-FRET signal is detected using a SpectraMax M5 plate reader (Molecular Devices) with the following settings: λex=340 nm, λem1=615 nm, λem2=665 nm. The ratio of the fluorescence signal at 665 nm to the fluorescence signal at 615 nm is used as the signal reading for the IC50 (calculation is based on the 4-parameter logistic model). The assay is performed in a 384-well format; the liquid manipulations are performed using a Beckman 3000 liquid manipulations station. The test compounds are tested at 10 concentration points in duplicate; the highest compound concentration is typically equal to 30 μM. The ATP concentration is equal to 40 μM, which is equivalent to the apparent KM value.

Pim-2 = target: T2, Pim-2 (Homo sapiens, UniProt Q9P1W9); experiment: TR-FRET assay, Pim-2 kinase (phosphorylation of Bad Ser112); conditions: read-out: IC50 Pim2
T2 construct: His6-labelled recombinant full-length human Pim-1, Pim-2 or Pim-3 protein; His6; made in house
Description: as §1, §2, §3

Pim-3 = target: T3, Pim-3 (Homo sapiens, UniProt Q86V86); experiment: TR-FRET assay, Pim-3 kinase (phosphorylation of Bad Ser112); conditions: read-out: IC50 Pim3
T3 construct: His6-labelled recombinant full-length human Pim-1, Pim-2 or Pim-3 protein; His6; made in house
Description: as §1, §2, §3

[1] = comparative compounds (Compound No., not claimed)

T1 sequence (P11309 whole entry): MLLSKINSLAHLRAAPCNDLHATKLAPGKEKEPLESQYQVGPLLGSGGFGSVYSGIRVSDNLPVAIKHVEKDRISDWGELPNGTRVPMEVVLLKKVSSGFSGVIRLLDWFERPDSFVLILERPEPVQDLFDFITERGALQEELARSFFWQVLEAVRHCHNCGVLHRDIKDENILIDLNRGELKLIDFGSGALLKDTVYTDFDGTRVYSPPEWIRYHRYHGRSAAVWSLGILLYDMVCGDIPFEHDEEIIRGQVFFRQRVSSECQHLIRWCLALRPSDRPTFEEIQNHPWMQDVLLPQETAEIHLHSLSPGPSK
T2 sequence (Q9P1W9 whole entry): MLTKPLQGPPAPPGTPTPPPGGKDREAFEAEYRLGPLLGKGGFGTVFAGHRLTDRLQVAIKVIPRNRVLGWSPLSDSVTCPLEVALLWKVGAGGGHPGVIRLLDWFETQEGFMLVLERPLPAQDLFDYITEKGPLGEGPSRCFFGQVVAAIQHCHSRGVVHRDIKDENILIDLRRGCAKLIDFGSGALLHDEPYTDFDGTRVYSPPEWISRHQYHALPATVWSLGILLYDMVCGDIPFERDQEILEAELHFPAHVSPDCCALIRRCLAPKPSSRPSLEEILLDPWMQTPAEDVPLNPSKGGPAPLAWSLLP

| IC50 (Pim-1; TR-FRET, ATP 40 μM) | IC50 (Pim-3; TR-FRET, ATP 40 μM) | Compound | also measured |
| --- | --- | --- | --- |
| 1000 to 5000 nM | 100 to 1000 nM | CC(C)(O)c1cnc2[nH]c3cnc(-c4cccnc4)cc3c2c1 [Example 16, 2-[6-(pyrid-3-yl)-9H-pyrrolo[2,3-b:5,4-c′]dipyrid-3-yl]propan-2-ol] | IC50 (Pim-2; TR-FRET, ATP 40 μM): 1 to 5 µM |
| 1000 to 5000 nM | > 5000 nM | CS(=O)(=O)Nc1ccccc1-c1c(F)cnc2[nH]c3cnc(-c4cccnc4)cc3c12 [Example 70, N-{2-[3-fluoro-6-(pyrid-3-yl)-9H-pyrrolo[2,3-b:5,4-c′]-dipyrid-4-yl]phenyl}-methanesulfonamide] | IC50 (Pim-2; TR-FRET, ATP 40 μM): > 5 µM |
| 1 to 100 nM | 1 to 100 nM | c1cncc(-c2cc3c(cn2)[nH]c2ncc(-c4ccc(OCCn5ccnc5)cc4)cc23)c1 [Example 150, 3-{4-[2-(1H-imidazol-1-yl)ethoxy]phenyl}-6-(pyrid-3-yl)-9H-pyrrolo[2,3-b:5,4-c′]-dipyridine] | IC50 (Pim-2; TR-FRET, ATP 40 μM): 0.1 to 1 µM |
| – | – | COc1cc2c(cn1)[nH]c1cnc(-c3cccnc3)cc12 [Compound 51] | IC50 (Pim-1; [1]): > 5000 nM; IC50 (Pim-2; [1]): > 5 µM; IC50 (Pim-3; [1]): > 5000 nM |
| 1 to 100 nM | 100 to 1000 nM | COc1c(F)cnc2[nH]c3cnc(-c4cccnc4)cc3c12 [Example 105, 3-fluoro-4-methoxy-6-(pyrid-3-yl)-9H-pyrrolo[2,3-b:5,4-c′]dipyridine] | IC50 (Pim-2; TR-FRET, ATP 40 μM): > 5 µM |
| 1 to 100 nM | – | Fc1cnc2[nH]c3cnc(-c4cccnc4)cc3c2c1I [Example 20, 3-fluoro-4-iodo-6-(pyrid-3-yl)-9H-pyrrolo[2,3-b:5,4-c′]dipyridine] | – |
| 100 to 1000 nM | – | CN(CCCC(=O)N1CCCC1)c1cnc2[nH]c3cnc(-c4cccnc4)cc3c2c1 [Example 12, 4-{methyl[6-(pyrid-3-yl)-9H-pyrrolo-[2,3-b:5,4-c′]dipy-rid-3-yl]amino}-1-(pyrrolidin-1-yl)-butan-1-one] | – |
| 1000 to 5000 nM | – | CCN(CC)c1cnc2[nH]c3cnc(-c4cccnc4)cc3c2c1 [Example 11, N,N-diethyl-6-(pyrid-3-yl)-9H-pyrrolo[2,3-b:5,4-c′]dipyrid-3-amine] | – |
| 100 to 1000 nM | 100 to 1000 nM | CC(C)(C)OC(=O)N1CCN(c2cc(-c3cnc4[nH]c5cnc(-c6cccnc6)cc5c4c3)ccn2)CC1 [Example 143, 2-methyl-2-propyl 4-{4-[6-(pyrid-3-yl)-9H-pyrrolo[2,3-b:5,4-c′]dipyrid-3-yl]pyrid-2-yl}piperazine-1-carboxylate] | – |
| 1000 to 5000 nM | – | Fc1cncc(-c2cc3c(cn2)[nH]c2ncccc23)c1 [Example 42, 6-(5-fluoropyrid-3-yl)-9H-pyrrolo[2,3-b:5,4-c′]dipyridine] | – |
| 100 to 1000 nM | – | COC(=O)c1cnc2[nH]c3cnc(-c4cccnc4)cc3c2c1 [Example 3, methyl 6-(pyrid-3-yl)-9H-pyrrolo[2,3-b:5,4-c′]dipyridine-3-carboxylate] | – |
| 100 to 1000 nM | 100 to 1000 nM | CC(C)(C)OC(=O)N1CCN(c2cccc(-c3cnc4[nH]c5cnc(-c6cccnc6)cc5c4c3)c2)CC1 [Example 131, 2-methyl-2-propyl 4-{3-[6-(pyrid-3-yl)-9H-pyrrolo[2,3-b:5,4-c′]dipyrid-3-yl]phenyl}piperazine-1-carboxylate] | – |
| 1 to 100 nM | 100 to 1000 nM | CCc1cc(N(CC)CC)ncc1-c1cnc2[nH]c3cnc(-c4cccnc4)cc3c2c1 [Example 133, N,N-4-triethyl-5-[6-(pyrid-3-yl)-9H-pyrrolo[2,3-b:5,4-c′]dipyrid-3-yl]pyrid-2-amine] | – |
| 100 to 1000 nM | – | O=C(O)c1cnc2[nH]c3cnc(-c4cccnc4)cc3c2c1 [Example 19, 6-(pyrid-3-yl)-9H-pyrrolo[2,3-b:5,4-c′]dipyridine-3-carboxylic acid] | – |
| 100 to 1000 nM | 100 to 1000 nM | CC(C)(C)OC(=O)N1CCN(c2ccc(-c3cnc4[nH]c5cnc(-c6cccnc6)cc5c4c3)cc2)CC1 [Example 129, 2-methyl-2-propyl 4-{4-[6-(pyrid-3-yl)-9H-pyrrolo[2,3-b:5,4-c′]dipyrid-3-yl]phenyl}-piperazine-1-carboxylate] | – |
